Values joined by “and” are separate entries in the source; they are usually repeats but may differ in a detail not shown here. Equal values may be shown once. ± gives the expanded uncertainty stated by the source.
Experiment: xn = mol fraction of the nth substance listed
Details: Gas, Frequency=2 MHz, Pulse-echo method

CCC [propane] + O=C=O
Details	speed of sound
248.59 K, 8020 kPa, x2 = 0.9981	802.3 ± 1.1 m/s
248.59 K, 8030 kPa, x2 = 0.9981	802.3 ± 1.1 m/s
248.59 K, 14980 kPa, x2 = 0.9981	856.8 ± 1 m/s
248.59 K, 24990 kPa, x2 = 0.9981	923 ± 1 m/s
248.59 K, 50040 kPa, x2 = 0.9981	1051.1 ± 1 m/s
248.59 K, 74970 kPa, x2 = 0.9981	1149.9 ± 1 m/s
248.59 K, 100010 kPa, x2 = 0.9981	1233.1 ± 1.1 m/s
248.59 K, 124970 kPa, x2 = 0.9981	1303.8 ± 1.1 m/s
248.59 K, 150040 kPa, x2 = 0.9981	1367.4 ± 1.2 m/s
248.88 K, 8270 kPa, x2 = 0.9376	799.4 ± 1.1 m/s
248.88 K, 15030 kPa, x2 = 0.9376	855.4 ± 1.1 m/s
248.88 K, 25030 kPa, x2 = 0.9376	924.8 ± 1 m/s
248.88 K, 49910 kPa, x2 = 0.9376	1056.8 ± 1 m/s
248.88 K, 75000 kPa, x2 = 0.9376	1159.3 ± 1.1 m/s
248.88 K, 100010 kPa, x2 = 0.9376	1246.2 ± 1.1 m/s
248.88 K, 125000 kPa, x2 = 0.9376	1320.1 ± 1.1 m/s
248.88 K, 149990 kPa, x2 = 0.9376	1385.8 ± 1.2 m/s
248.88 K, 174980 kPa, x2 = 0.9376	1447.1 ± 1.2 m/s
249.03 K, 7920 kPa, x2 = 0.9683	797.2 ± 1.1 m/s and 796.4 ± 1.1 m/s
249.03 K, 14790 kPa, x2 = 0.9683	852.8 ± 1.1 m/s
249.03 K, 25010 kPa, x2 = 0.9683	922.3 ± 1 m/s
249.03 K, 49980 kPa, x2 = 0.9683	1052.6 ± 1 m/s
249.03 K, 75760 kPa, x2 = 0.9683	1155.3 ± 1.1 m/s
249.03 K, 100410 kPa, x2 = 0.9683	1239.6 ± 1.1 m/s
249.03 K, 125280 kPa, x2 = 0.9683	1312.1 ± 1.1 m/s
249.03 K, 150010 kPa, x2 = 0.9683	1377.4 ± 1.2 m/s
251.21 K, 8050 kPa, x2 = 0.9907	786.8 ± 1.1 m/s
251.21 K, 8120 kPa, x2 = 0.9907	787.6 ± 1.1 m/s
251.21 K, 15010 kPa, x2 = 0.9907	844.2 ± 1.1 m/s
251.21 K, 25270 kPa, x2 = 0.9907	913.8 ± 1 m/s
251.21 K, 50770 kPa, x2 = 0.9907	1045.7 ± 1 m/s
251.21 K, 75170 kPa, x2 = 0.9907	1143.2 ± 1 m/s
251.21 K, 101430 kPa, x2 = 0.9907	1230.8 ± 1.1 m/s
251.21 K, 124940 kPa, x2 = 0.9907	1299.1 ± 1.1 m/s
251.21 K, 150910 kPa, x2 = 0.9907	1366.3 ± 1.2 m/s
273.25 K, 8170 kPa, x2 = 0.9376	614.5 ± 1.5 m/s
273.25 K, 8180 kPa, x2 = 0.9376	614.8 ± 1.5 m/s
273.25 K, 15190 kPa, x2 = 0.9376	699.7 ± 1.2 m/s
273.25 K, 24920 kPa, x2 = 0.9376	787.4 ± 1 m/s
273.25 K, 50000 kPa, x2 = 0.9376	946.5 ± 1 m/s
273.25 K, 75020 kPa, x2 = 0.9376	1062.2 ± 1 m/s
273.25 K, 100040 kPa, x2 = 0.9376	1155.2 ± 1 m/s
273.25 K, 125010 kPa, x2 = 0.9376	1236.3 ± 1.1 m/s
273.25 K, 150000 kPa, x2 = 0.9376	1305.4 ± 1.1 m/s
273.25 K, 175050 kPa, x2 = 0.9376	1369.6 ± 1.2 m/s
273.25 K, 200000 kPa, x2 = 0.9376	1428.5 ± 1.2 m/s
273.34 K, 8010 kPa, x2 = 0.9683	610.5 ± 1.3 m/s and 610.9 ± 1.3 m/s
273.34 K, 14920 kPa, x2 = 0.9683	694.4 ± 1.2 m/s
273.34 K, 25000 kPa, x2 = 0.9683	785 ± 1 m/s
273.34 K, 50050 kPa, x2 = 0.9683	942.8 ± 1 m/s
273.34 K, 75530 kPa, x2 = 0.9683	1058.9 ± 1 m/s
273.34 K, 100060 kPa, x2 = 0.9683	1149.4 ± 1 m/s
273.34 K, 125060 kPa, x2 = 0.9683	1229.3 ± 1.1 m/s
273.34 K, 148510 kPa, x2 = 0.9683	1293.7 ± 1.1 m/s
273.34 K, 175030 kPa, x2 = 0.9683	1360.3 ± 1.2 m/s
273.34 K, 200040 kPa, x2 = 0.9683	1417.3 ± 1.2 m/s
273.39 K, 8050 kPa, x2 = 0.9907	613.9 ± 1.3 m/s
273.39 K, 8070 kPa, x2 = 0.9907	614 ± 1.3 m/s
273.39 K, 15140 kPa, x2 = 0.9907	698.1 ± 1.2 m/s
273.39 K, 25280 kPa, x2 = 0.9907	787.2 ± 1 m/s
273.39 K, 50080 kPa, x2 = 0.9907	941.2 ± 1 m/s
273.39 K, 75540 kPa, x2 = 0.9907	1055.9 ± 1 m/s
273.39 K, 100080 kPa, x2 = 0.9907	1145.5 ± 1 m/s
273.39 K, 125360 kPa, x2 = 0.9907	1225.5 ± 1.1 m/s
273.39 K, 150170 kPa, x2 = 0.9907	1292.3 ± 1.1 m/s
273.39 K, 174970 kPa, x2 = 0.9907	1354.8 ± 1.2 m/s
273.39 K, 199910 kPa, x2 = 0.9907	1410.8 ± 1.2 m/s
273.41 K, 15200 kPa, x2 = 0.9981	699 ± 1.1 m/s
273.41 K, 15230 kPa, x2 = 0.9981	699 ± 1.1 m/s
273.41 K, 25030 kPa, x2 = 0.9981	785.6 ± 1 m/s
273.41 K, 50020 kPa, x2 = 0.9981	939.4 ± 1 m/s
273.41 K, 75010 kPa, x2 = 0.9981	1052.3 ± 1 m/s
273.41 K, 100020 kPa, x2 = 0.9981	1143.6 ± 1 m/s
273.41 K, 124950 kPa, x2 = 0.9981	1220.2 ± 1.1 m/s
273.41 K, 150010 kPa, x2 = 0.9981	1288.3 ± 1.1 m/s
273.41 K, 174990 kPa, x2 = 0.9981	1349.1 ± 1.2 m/s
273.41 K, 200000 kPa, x2 = 0.9981	1404.5 ± 1.2 m/s
298.13 K, 25110 kPa, x2 = 0.9907	654.1 ± 0.9 m/s
298.13 K, 25180 kPa, x2 = 0.9907	653.9 ± 0.9 m/s
298.13 K, 50020 kPa, x2 = 0.9907	837.8 ± 1 m/s
298.13 K, 50040 kPa, x2 = 0.9981	837.4 ± 0.9 m/s and 837.3 ± 0.9 m/s
298.13 K, 74940 kPa, x2 = 0.9981	962.5 ± 0.9 m/s
298.13 K, 75230 kPa, x2 = 0.9907	965 ± 1 m/s
298.13 K, 100020 kPa, x2 = 0.9981	1061.9 ± 1 m/s
298.13 K, 100100 kPa, x2 = 0.9907	1064 ± 1 m/s
298.13 K, 124970 kPa, x2 = 0.9907	1147.9 ± 1 m/s
298.13 K, 125020 kPa, x2 = 0.9981	1145.5 ± 1 m/s
298.13 K, 149790 kPa, x2 = 0.9907	1220.2 ± 1.1 m/s
298.13 K, 150010 kPa, x2 = 0.9981	1219.2 ± 1.1 m/s
298.13 K, 174530 kPa, x2 = 0.9907	1285.6 ± 1.1 m/s
298.13 K, 174980 kPa, x2 = 0.9981	1285.5 ± 1.1 m/s
298.13 K, 200010 kPa, x2 = 0.9981	1346.1 ± 1.2 m/s
298.13 K, 200530 kPa, x2 = 0.9907	1346.2 ± 1.2 m/s
298.14 K, 14950 kPa, x2 = 0.9683	531.8 ± 1.3 m/s
298.14 K, 14960 kPa, x2 = 0.9683	532.2 ± 1.3 m/s
298.14 K, 24980 kPa, x2 = 0.9683	654.5 ± 1 m/s
298.14 K, 50050 kPa, x2 = 0.9683	841.6 ± 1 m/s
298.14 K, 74950 kPa, x2 = 0.9683	969 ± 1 m/s
298.14 K, 100060 kPa, x2 = 0.9683	1070 ± 1 m/s
298.14 K, 125000 kPa, x2 = 0.9683	1154.1 ± 1 m/s
298.14 K, 150290 kPa, x2 = 0.9683	1228.9 ± 1.1 m/s
298.14 K, 175030 kPa, x2 = 0.9683	1294.1 ± 1.1 m/s
298.14 K, 200020 kPa, x2 = 0.9683	1354.1 ± 1.2 m/s
298.18 K, 8210 kPa, x2 = 0.9376	388.5 ± 2.4 m/s
298.18 K, 15120 kPa, x2 = 0.9376	538.7 ± 1.7 m/s and 538.6 ± 1.7 m/s
298.18 K, 24990 kPa, x2 = 0.9376	659 ± 1 m/s
298.18 K, 49980 kPa, x2 = 0.9376	846.6 ± 1 m/s
298.18 K, 75090 kPa, x2 = 0.9376	975.1 ± 1 m/s
